Test results from patent US8163909B2, “Substituted hydroxyethyl amine compounds as beta-secretase modulators and methods of use” (Amgen Inc., priority 2007, dated 2012).
Read-outs that look alike come from different tables or passages of the source.

What was measured:
[1] = molecular target: Beta Secretase enzyme (BACE) (Homo sapiens, UniProt P56817); experiment: In vitro enzymatic BACE FRET (fluorescence resonance energy transfer) assay; format: biochemical;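 note: fluorescence read after 1 h with 50 nM quenched peptide substrate spanning the BACE cleavage site, in pH 4.2 acetate buffer containing 10% DMSO and nonionic detergent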
Beta Secretase enzyme (BACE), sequence (P56817 46-501): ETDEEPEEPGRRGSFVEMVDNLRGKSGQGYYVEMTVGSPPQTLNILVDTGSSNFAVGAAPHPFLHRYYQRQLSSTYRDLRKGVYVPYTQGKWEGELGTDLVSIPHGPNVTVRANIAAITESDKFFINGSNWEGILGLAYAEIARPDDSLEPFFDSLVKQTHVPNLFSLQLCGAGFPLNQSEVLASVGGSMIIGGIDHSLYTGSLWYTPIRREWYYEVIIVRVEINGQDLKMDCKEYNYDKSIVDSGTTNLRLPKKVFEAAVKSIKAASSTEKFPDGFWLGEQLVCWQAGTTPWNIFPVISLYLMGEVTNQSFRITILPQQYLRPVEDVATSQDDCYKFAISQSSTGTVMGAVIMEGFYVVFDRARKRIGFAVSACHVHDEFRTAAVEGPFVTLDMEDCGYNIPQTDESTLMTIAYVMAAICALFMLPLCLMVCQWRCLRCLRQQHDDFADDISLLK

[2] = system: Aβ40 in conditioned medium of cells stably expressing Amyloid Precursor Protein (APP); experiment: In vitro BACE cell-based assay (Aβ40 in conditioned medium, sandwich ELISA); conditions: Homo sapiens;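 note: compounds added as a dilution series, secreted peptide quantified by europium time-resolved fluorescence readout, potency fitted from percent of control versus compound concentration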
[3] = BACE enzyme FRET assay, read-out: BACE1 FRET assay (IC50)
[4] = HEK293, HEK cells, cell-based assay, read-out: HEK cell assay (IC50)
[5] = BACE enzyme assay, read-out: BACE1 FRET assay (IC50)
[6] = read-out: BACE1 FRET assay (IC50)
[7] = HEK293, HEK cells, read-out: HEK cell assay (IC50)
[8] = Table 1, read-out: BACE1 FRET assay
[9] = HEK293, Table 1, HEK cells, read-out: HEK cell assay

Row | IC50 [1, 3] [nM] | IC50 [2, 4] [nM] | IC50 [1, 5] [nM] | SMILES | other results
1 | 31.8 | 31.4 |  | COCC(=O)NC(Cc1ccc2c(c1)OCO2)C(O)CNC1CC2(CC(O)C2)Oc2ccc(CC(C)(C)C)cc21 [compound 267, N-((1S,2R)-1-(1,3-benzodioxol-5-ylmethyl)-3-(((2s,3′S,4S)-6-(2,2-dimethylpropyl)-3′-hydroxy-3,4-dihydrospiro[chromene-2,1′-cyclobutan]-4-yl)amino)-2-hydroxypropyl)-2-(methyloxy)acetamide] | 
2 |  | 66 | 25.2 | CC(=O)NC(Cc1ccc2c(c1)OCO2)C(O)CNC1CC2(CC(C)C2)Oc2ncc(CC(C)C)cc21 [compound 132, N-((1S,2R)-1-(1,3-benzodioxol-5-ylmethyl)-2-hydroxy-3-(((1s,3R,4′S)-3-methyl-6′-(2-methylpropyl)-3′,4′-dihydrospiro[cyclobutane-1,2′-pyrano[2,3-b]pyridin]-4′-yl)amino)propyl)acetamide] | 
3 |  | 14.8 | 6.37 | COCC(=O)N[C@@H](Cc1ccc(F)c(OC)c1)[C@H](O)CN[C@H]1CC2(CCC2)Oc2ncc(CC(C)(C)C)cc21 [compound 79] | 
4 | 2.84 | 21.1 |  | CC(=O)N[C@@H](Cc1cc(Br)c2c(c1)OCO2)[C@H](O)CN[C@H]1CC2(CCC2)Oc2ncc(CC(C)(C)C)cc21 [compound 203] | 
5 |  | 9.34 | 2.17 | CC(=O)N[C@@H](Cc1ccc(F)c(F)c1)[C@H](O)CN[C@H]1CC2(CCC2)Oc2ncc([C@H](F)C(C)(C)C)cc21 [compound 177] | 
6 |  | 83 | 23.6 | CC(=O)N[C@@H](Cc1ccc2c(c1)OCO2)[C@H](O)CN[C@H]1CC2(CC(F)(F)C2)Oc2ncc(CC(C)(C)C)cc21 [compound 55] | 
7 | 581 | 452 |  | COCC(=O)NC(Cc1cccc(F)c1)C(O)CNC1CC2(CC(O)C2)Oc2cnccc21 [compound 235, N-((1S,2R)-1-((3-fluorophenyl)methyl)-2-hydroxy-3-(((1s,3S,4′S)-3-hydroxy-3′,4′-dihydrospiro[cyclobutane-1,2′-pyrano[2,3-c]pyridin]-4′-yl)amino)propyl)-2-(methyloxy)acetamide] | 
8 | 16000 | 3330 |  | CC(=O)NC(Cc1ccc(F)cc1)C(O)CNC1CC2(CC(CO)C2)Oc2ncc(CC(C)(C)C)cc21 [compound 259, N-((1S,2R)-3-(((1s,3R,4′S)-6′-(2,2-dimethylpropyl)-3-(hydroxymethyl)-3′,4′-dihydrospiro[cyclobutane-1,2′-pyrano[2,3-b]pyridin]-4′-yl)amino)-1-((4-fluorophenyl)methyl)-2-hydroxypropyl)acetamide] | 
9 | 13.7 | 44.4 |  | COCC(=O)N[C@@H](Cc1cccc(F)c1)[C@H](O)CN[C@H]1CC2(CCC2)Oc2c(F)cc(CC(C)(C)C)cc21 [compound 221] | 
10 | 6.34 | 11.8 |  | CC(=O)NC(Cc1ccc(F)cc1)C(O)CNC1CC2(CC(O)C2)Oc2ncc(CC(C)C)cc21 [compound 251, N-((1S,2R)-1-((4-fluorophenyl)methyl)-2-hydroxy-3-(((1s,3S,4′S)-3-hydroxy-6′-(2-methylpropyl)-3′,4′-dihydrospiro[cyclobutane-1,2′-pyrano[2,3-b]pyridin]-4′-yl)amino)propyl)acetamide] | 
11 |  | 6.54 | 38.7 | CNc1nc(CC(C)(C)C)cc2c1OC1(CCC1)C[C@@H]2NC[C@@H](O)[C@H](Cc1cccc(F)c1)NC(=O)COC [compound 148] | 

The remaining lines, values behind:

Row | SMILES | IC50 [1, 3] [nM] | IC50 [2, 4] [nM] | IC50 [1, 5] [nM] | other results
12 | COCC(=O)N[C@@H](Cc1ccc(F)cc1)[C@H](O)CN[C@H]1CC2(CCC2)Oc2ncc(CCC(F)(F)F)cc21 [compound 193] | 202 | 518 |  | 
13 | CNc1nc(CC(C)(C)C)cc2c1OC1(CCC1)C[C@@H]2N(C)C[C@@H](O)[C@H](Cc1ccc2c(c1)OCO2)NC(=O)[C@@H](C)OC [compound 145] |  | 777 | 298 | 
14 | CC(C)(C)Cc1cnc2c(c1)[C@@H](NC[C@@H](O)[C@H](Cc1ccc3c(c1)OCO3)NC(=O)[C@@H]1CCCO1)CC1(CCC1)O2 [compound 453] |  |  |  | IC50 ([1]; Table 2, read-out: BACE1 FRET assay): 22 nM; IC50 ([2]; HEK293, Table 2, HEK cells, read-out: HEK cell assay): 37 nM
15 | CO[C@H](C)C(=O)N[C@@H](Cc1ccc(F)cc1)[C@H](O)CN[C@H]1CC2(CCC2)Oc2ncc(CC(C)(C)C(F)(F)F)cc21 [compound 75] |  | 19.9 | 6.68 | 
16 | CO[C@@H](C)C(=O)N[C@@H](Cc1ccc2c(c1)OC(F)(F)O2)[C@H](O)CN[C@H]1CC2(CCC2)Oc2ncc(CC(C)(C)C)cc21 [compound 296] | 102 | 575 |  | 
17 | CC(C)Cc1cnc2c(c1)[C@@H](NC[C@@H](O)[C@H](Cc1ccc3c(c1)OCO3)NC(=O)[C@H](C)F)CC1(CCC1)O2 [compound 601] |  |  |  | IC50 [1, 6]: 44 nM; IC50 [2, 7]: 62 nM
18 | CC(=O)N[C@@H](Cc1ccc(F)cc1)[C@H](O)CN[C@H]1C[C@]2(CC[C@H]2O)Oc2ncc(CC(C)(C)C)cc21 [compound 118] |  | 28 | 9.11 | 
19 | CO[C@H](C)C(=O)N[C@@H](Cc1ccc(F)cc1)[C@H](O)CN[C@H]1CC2(CCC2)Oc2c1cc(CC(C)(C)C)nc2NCC(F)(F)F [compound 141, (2R)-N-((1S,2R)-3-(((4′S)-6′-(2,2-dimethylpropyl)-8′-((2,2,2-trifluoroethyl)amino)-3′,4′-dihydrospiro[cyclobutane-1,2′-pyrano[2,3-c]pyridin]-4′-yl)amino)-1-((4-fluorophenyl)methyl)-2-hydroxypropyl)-2-(methyloxy)propanamide] |  | 2840 | 319 | 
20 | CC(=O)N[C@@H](Cc1ccc2c(c1)OCO2)[C@H](O)CN[C@H]1CC2(CCC2)Oc2ncc(C[C@@H](C)C(F)(F)F)cc21 [compound 321] |  |  |  | IC50 [1, 8]: 134 nM; IC50 [2, 9]: 64.6 nM
21 | CCOCC(=O)N[C@@H](Cc1ccc(F)cc1)[C@H](O)CN[C@H]1CC2(CCC2)Oc2ncc(CC(C)(C)C)cc21 [compound 655] |  |  |  | IC50 [1, 6]: 13 nM; IC50 [2, 7]: 43 nM
22 | CC(C)(C)Cc1cnc2c(c1)[C@@H](NC[C@@H](O)[C@H](Cc1cccc(C#N)c1)NC(=O)[C@H](O)C(F)(F)F)CC1(CCC1)O2 [compound 61] |  | 9.65 | 3.23 | 
23 | COCC(=O)N[C@@H](Cc1cc(F)cc(F)c1)[C@H](O)CN[C@H]1CC2(CCC2)Oc2ncc(CC(F)(F)F)cc21 [compound 348] |  |  |  | IC50 [1, 8]: 6.88 nM; IC50 [2, 9]: 18.2 nM
24 | CO[C@H](C)C(=O)N[C@@H](Cc1ccc2c(c1)OCO2)[C@H](O)CN[C@H]1CC2(CCC2)Oc2ncc(CC(C)(F)F)cc21 [compound 279] | 126 | 108 |  | 
25 | COCC(=O)N[C@@H](Cc1cccc(F)c1)[C@H](O)CN[C@H]1CC2(CCC2)Oc2c(-c3ccncc3)cc(CC(C)(C)F)cc21 [compound 530] |  |  |  | IC50 ([1]; BACE enzyme assay, read-out: BACE1 FRET assay): 15 nM; IC50 ([2]; HEK293, HEK cells, read-out: HEK cell assay): 10 nM
26 | CC(=O)N[C@@H](Cc1ccc(F)cc1)[C@H](O)CNC1c2cc(CC(C)(C)C)cnc2OC2(CCC2)C1F (stereo partly shown) [compound 355] |  |  |  | IC50 [1, 8]: 117 nM; IC50 [2, 9]: 113 nM
27 | COCC(=O)N[C@@H](Cc1ccc2c(c1)OCCO2)[C@H](O)CN[C@H]1CC2(CCC2)Oc2ncc(CC(C)(C)C)cc21 [compound 206] | 22.7 | 42.5 |  | 
28 | CC(C)(C)Cc1cnc2c(c1)[C@@H](NC[C@@H](O)[C@H](Cc1cccc(F)c1)NC(=O)C(F)(F)Cl)CC1(CCC1)O2 [compound 108] |  | 90.6 | 5.06 | 
29 | CC(=O)N[C@@H](Cc1ccc2c(c1)OCO2)[C@H](O)CN[C@H]1CC2(CCC2)Oc2nc(F)c(CC(C)C)cc21 [compound 338] |  |  |  | IC50 [1, 8]: 109 nM; IC50 [2, 9]: 252 nM
